This passage reports T/C results from PubChem BioAssay AID192 (DTP/NCI, 2004).

“And” between values parts separate entries of the source, which are not always exact repeats. Identical values can stand only once. Toxic doses and inconclusive results are not listed.

In this assay the test system is BDF1 mice, B16 melanoma ip, median survival T/C. Put plainly: NCI In Vivo Anticancer Drug Screen. Data for tumor model B16 Melanoma (intraperitoneal) in B6D2F1 (BDF1) mice. As to conditions: endpoint: median survival time, higher = longer survival. In a few lines:
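Antitumor activity is assessed in mice bearing a transplanted tumor, with survival or tumor size compared against vehicle-dosed controls and expressed as T/C.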

Setting [1] is: dose: 100.0 mg/kg/injection, schedule: Q04DX003 (ip), vehicle: saline with Tween-80.
Where [2] appears, read: dose: 400.0 mg/kg/injection, schedule: Q04DX003 (ip), vehicle: saline with Tween-80.
The mark [3] stands for this setting: dose: 2.5 mg/kg/injection, schedule: Q01DX009 (ip), vehicle: saline.
Setting [4] is: dose: 5.0 mg/kg/injection, schedule: Q01DX009 (ip), vehicle: saline.
Setting [5] is: dose: 10.0 mg/kg/injection, schedule: Q01DX009 (ip), vehicle: saline.
The mark [6] stands for this setting: dose: 100.0 mg/kg/injection, schedule: Q01DX009 (ip), vehicle: Klucel (hydroxypropylcellulose) (HPC).
The mark [7] stands for this setting: dose: 200.0 mg/kg/injection, schedule: Q01DX009 (ip), vehicle: Klucel (hydroxypropylcellulose) (HPC).

As for `CC(C)CC(NC(=O)CCl)C(=O)O` (stereo not given), the T/C reads like this: (dose: 6.25 mg/kg/injection, schedule: Q01DX009 (ip), vehicle: saline with Tween-80) 110 % of control; (dose: 12.5 mg/kg/injection, schedule: Q01DX009 (ip), vehicle: saline with Tween-80) 95 % of control; (dose: 25.0 mg/kg/injection, schedule: Q01DX009 (ip), vehicle: saline with Tween-80) 95 % of control.
Regarding `CC1(C#N)CCc2c(ccc3ccccc23)C1=O` (stereo not given), the T/C by setting is: (dose: 50.0 mg/kg/injection, schedule: Q04DX003 (ip), vehicle: other) 122 % of control; (dose: 100.0 mg/kg/injection, schedule: Q04DX003 (ip), vehicle: other) 107 % of control; under setting [1], 95 % of control; under setting [2], 95 % of control.
With `CC(C)(C[NH-])C[NH-].[Cl][Pt+2][Cl]`, the T/C (dose: 0.5 mg/kg/injection, schedule: Q04DX003 (ip), vehicle: water) is 164 % of control; the T/C (dose: 1.0 mg/kg/injection, schedule: Q04DX003 (ip), vehicle: water) is 165 % of control and 183 % of control; the T/C (dose: 2.0 mg/kg/injection, schedule: Q04DX003 (ip), vehicle: water) is 161 % of control and 201 % of control; the T/C (dose: 4.0 mg/kg/injection, schedule: Q04DX003 (ip), vehicle: water) is 213 % of control.
As for `ClC[P+](c1ccccc1)(c1ccccc1)c1ccccc1`, the T/C was 120 % of control under setting [3], 106 % of control under setting [4] and 101 % of control under setting [5].
As to `O=C(O)c1cccc2c1S(=O)(=O)c1ccccc1C2=O`, the T/C is 100 % of control (dose: 75.0 mg/kg/injection, schedule: Q01DX009 (ip), vehicle: Klucel (hydroxypropylcellulose) (HPC)); 97 % of control (dose: 150.0 mg/kg/injection, schedule: Q01DX009 (ip), vehicle: Klucel (hydroxypropylcellulose) (HPC)); 100 % of control (dose: 300.0 mg/kg/injection, schedule: Q01DX009 (ip), vehicle: Klucel (hydroxypropylcellulose) (HPC)).
Consider `FC(F)(F)c1ccc2c(c1)N(CCCN1CCN(CC[n+]3ccccc3)CC1)c1ccccc1S2`, for which the T/C runs as follows: (dose: 1.25 mg/kg/injection, schedule: Q01DX009 (ip), vehicle: saline) 100 % of control; under setting [3], 105 % of control; under setting [4], 105 % of control and 107 % of control; under setting [5], 89 % of control and 97 % of control.
As for `COc1ccc(CN(CCN(C)C)c2ccccn2)cc1`, the T/C reads like this: (dose: 12.5 mg/kg/injection, schedule: Q01DX009 (ip), vehicle: Klucel (hydroxypropylcellulose) (HPC)) 100 % of control; (dose: 25.0 mg/kg/injection, schedule: Q01DX009 (ip), vehicle: Klucel (hydroxypropylcellulose) (HPC)) 96 % of control; (dose: 50.0 mg/kg/injection, schedule: Q01DX009 (ip), vehicle: Klucel (hydroxypropylcellulose) (HPC)) 93 % of control.
As to `O=S(=O)(O)CNc1cc(Cl)cc(Cl)c1`, the T/C runs as follows: under setting [6], 108 % of control; under setting [7], 94 % of control.
Take `CN1CCN(c2ccc([N+](=O)[O-])c3no[n+]([O-])c23)CC1`: the T/C is, setting by setting: (dose: 5.0 mg/kg/injection, schedule: Q01DX009 (ip), vehicle: saline with Tween-80) 111 % of control; (dose: 5.0 mg/kg/injection, schedule: Q01DX011 (ip), vehicle: saline with Tween-80) 110 % of control; (dose: 10.0 mg/kg/injection, schedule: Q01DX009 (ip), vehicle: saline with Tween-80) 107 % of control; (dose: 10.0 mg/kg/injection, schedule: Q01DX011 (ip), vehicle: saline with Tween-80) 109 % of control.
`Oc1ccc2ccc3[nH]cnc3c2c1`: the T/C (dose: 50.0 mg/kg/injection, schedule: Q04DX003 (ip), vehicle: Klucel (hydroxypropylcellulose) (HPC)) is 100 % of control and the T/C (dose: 100.0 mg/kg/injection, schedule: Q04DX003 (ip), vehicle: Klucel (hydroxypropylcellulose) (HPC)) was 105 % of control.
`C[n+]1cccc(O)c1`: the T/C by setting is: (dose: 100.0 mg/kg/injection, schedule: Q04DX003 (ip), vehicle: saline) 95 % of control; (dose: 200.0 mg/kg/injection, schedule: Q04DX003 (ip), vehicle: saline) 97 % of control; (dose: 400.0 mg/kg/injection, schedule: Q04DX003 (ip), vehicle: saline) 102 % of control.
In the case of `O=S1(=O)CC2(N3CCOCC3)CCCCC21` (stereo not given), the T/C (dose: 100.0 mg/kg/injection, schedule: Q01DX009 (ip), vehicle: saline with Tween-80) is 102 % of control and the T/C (dose: 200.0 mg/kg/injection, schedule: Q01DX009 (ip), vehicle: saline with Tween-80) was 104 % of control.
For `CCCCCCCCCCCCCCCCN(C(=S)c1ccccc1)c1ccccc1`, the T/C runs as follows: under setting [6], 94 % of control; under setting [7], 95 % of control; (dose: 400.0 mg/kg/injection, schedule: Q01DX009 (ip), vehicle: Klucel (hydroxypropylcellulose) (HPC)) 97 % of control.
For `[I][Pt+2][I].[NH-]CC[NH-]`, the T/C is 110 % of control (dose: 2.75 mg/kg/injection, schedule: Q01DX009 (ip), vehicle: Klucel (hydroxypropylcellulose) (HPC)); 109 % of control and 114 % of control (dose: 5.5 mg/kg/injection, schedule: Q01DX009 (ip), vehicle: Klucel (hydroxypropylcellulose) (HPC)); 109 % of control and 113 % of control (dose: 11.0 mg/kg/injection, schedule: Q01DX009 (ip), vehicle: Klucel (hydroxypropylcellulose) (HPC)); 120 % of control (dose: 22.0 mg/kg/injection, schedule: Q01DX009 (ip), vehicle: Klucel (hydroxypropylcellulose) (HPC)).
On to `COc1cccc(N2C(=O)CSC2=S)c1`, for which the T/C is 93 % of control under setting [6] and 90 % of control under setting [7].
For the compound `O=C(O)C(Br)C(Br)c1ccccc1` (stereo not given), the T/C reads like this: under setting [1], 86 % of control; (dose: 200.0 mg/kg/injection, schedule: Q04DX003 (ip), vehicle: saline with Tween-80) 93 % of control; under setting [2], 86 % of control.
Consider `O=C(O)Cc1c(O)ccc2ccccc12`, for which the T/C (dose: 25.0 mg/kg/injection, schedule: Q04DX003 (ip), vehicle: gum acacia) was 100 % of control; the T/C (dose: 50.0 mg/kg/injection, schedule: Q04DX003 (ip), vehicle: gum acacia) was 100 % of control; the T/C (dose: 100.0 mg/kg/injection, schedule: Q04DX003 (ip), vehicle: gum acacia) was 97 % of control.
As for `CCOC(CNC(=O)CC(C)=O)OCC`, the T/C is, setting by setting: (dose: 100.0 mg/kg/injection, schedule: Q01DX009 (ip), vehicle: saline) 110 % of control; (dose: 200.0 mg/kg/injection, schedule: Q01DX009 (ip), vehicle: saline) 118 % of control; (dose: 400.0 mg/kg/injection, schedule: Q01DX009 (ip), vehicle: saline) 106 % of control.
